From patent US20100215631A1, “ANTI-INFLAMMATORY COMPOSITION COMPRISING GLYCINE AND LACTOFERRIN AND THE USE THEREOF” (priority 2006, published 2010)

Key:
Balb/C mice = assay: Zymosan-induced ear swelling in an inflammatory mouse model (Example 1); assay type: in vivo; conditions: daily gavage 0.1 mg lactoferrin and/or 50 mg glycine, versus non-supplemented mice
Protocol: Balb/C mice (8 weeks of age, Charles River, Maastricht, The Netherlands) were randomly assigned two control and three test groups and supplemented daily for three days with 0.1 mg lactoferrin (DMV, Veghel, The Netherlands), 50 mg glycine (Sigma, Zwijndrecht, The Netherlands) or a combination of both components (test groups 3, 4 and 5 respectively) or vehicle (control groups 1 and 2) was administered by gavage. At day two of the supplementation ear thickness was measured using a micrometer (Mitutoyo Digimatic, Veenendaal, The Netherlands) Subsequently 25 μl 0.5% zymosan (Sigma) in PBS (group 2-5) or vehicle (group 1) was injected subcutaneously in both ears. Ear thickness was measured 3, 6 and 24 hours (example 1) after injection after which the animals were sacrificed.
In mice injected in the ear with zymosan, lactoferrin (LF) and glycine (Gly) supplemented mice show a highest decrease in ear swelling when compared to non-supplemented mice, see Table 1. A clear synergistic effect of LF and Gly is observed.

TNF-α producing cells = assay: Ex-vivo ELISpot of TNF-α producing spleen cells from supplemented mice with zymosan-induced ear inflammation (Example 2); assay type: in vivo; conditions: 1 μg/ml LPS, after three days of oral supplementation
Protocol: The spleen was removed and pushed through a cell strainer. Red blood cell lysis was performed in 5 ml of could lysis buffer (4.15 g NH4Cl, 0.5 g KHCO3 and 18.6 mg Na2EDTA in 1 liter water at pH 7,3) for 5 minutes. Cells were washed twice in could RPMI (Invitrogen, Merelbeke, Belgium) and after centrifugation diluted to a concentration of 1.10^7 cells/ml. TNF-α producing cells were detected by ELISpot assay in the absence or presence of 1 μg/ml lipopolysaccharide (Sigma) (example 2).
Spleen cells were collected from mice with a zymosan-induced inflammation in the ear after three days of oral supplementation with water (=control), lactoferrin (LF), glycine or a combination of LF and glycine. The number of TNF-α producing cells was determined using an ELISpot assay. LF and glycine inhibit the LPS stimulated number of TNF producing cells by 92% and 97% respectively (back to not zymosan treated control levels). The combination of glycine and lactoferrin inhibited the number of TNF-α positive cells 50% below the […] injected control. This unexpected high rate of inhibition makes the combination of glycine with lactoferrin an excellent choice for the treatment of inflammatory diseases.

## NCC(=O)O [Glycine, glycine]
Balb/C mice; 3 hrs after zymosan injection in ears
  Decrease in ear swelling: 10 ± 16
Balb/C mice; 6 hrs after zymosan injection in ears
  Decrease in ear swelling: 28 ± 20
TNF-α producing cells
  Inhibition of the LPS stimulated number of TNF producing cells: 97%
